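48-hour exposure; five concentrations; linearly interpolated endpoints. GI50 is the concentration that inhibits growth by half.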 Activity calls are given as the source filed them. Rule as the data show it: active = GI50 up to about 1.1 µM and inactive = higher.
Experiments:
Test in all cases: DTP human tumour cell line panel, 48 h
SK-MEL-5 = system: SK-MEL-5
KM12 = system: KM12
NCI-H522 = system: NCI-H522
ACHN = system: ACHN
SF-539 = system: SF-539
RXF 393 = system: RXF 393
SK-MEL-2 = system: SK-MEL-2
UO-31 = system: UO-31
NCI-H226 = system: NCI-H226
HOP-92 = system: HOP-92
SW-620 = system: SW-620
HOP-62 = system: HOP-62
MDA-MB-231 = system: MDA-MB-231
DU-145 = system: DU-145
Hs-578T = system: Hs-578T
PC-3 = system: PC-3
BT-549 = system: BT-549
OVCAR-5 = system: OVCAR-5

Measured: GI50

COc1ccc(OC)c(NCC#N)c1
inactive: SK-MEL-5 > 100 µM | KM12 > 100 µM | NCI-H522 > 100 µM | ACHN > 100 µM | SF-539 > 100 µM | RXF 393 > 100 µM | SK-MEL-2 > 100 µM | UO-31 > 100 µM | NCI-H226 > 100 µM | HOP-92 > 100 µM | SW-620 > 100 µM | HOP-62 > 100 µM

Cc1ccc(/C=N/n2c(=O)[nH]c3ccccc3c2=O)cc1
inactive: MDA-MB-231 > 100 µM | SK-MEL-5 > 100 µM | KM12 > 100 µM | DU-145 > 100 µM | Hs-578T > 100 µM | PC-3 > 100 µM | ACHN > 100 µM | SF-539 > 100 µM | SK-MEL-2 > 100 µM | UO-31 > 100 µM | NCI-H226 > 100 µM | HOP-92 > 100 µM | SW-620 > 100 µM | HOP-62 > 100 µM | BT-549 > 100 µM | OVCAR-5 > 100 µM

Cc1nc(C(N)=S)sc1C(=O)C/C(=N/N)C(=O)Nc1cccc(Cl)c1C
inactive: MDA-MB-231 > 100 µM | SK-MEL-5 > 100 µM | KM12 > 100 µM | NCI-H522 > 100 µM | Hs-578T > 100 µM | PC-3 > 100 µM | ACHN > 100 µM | SF-539 > 100 µM | RXF 393 > 100 µM | SK-MEL-2 > 100 µM | UO-31 > 100 µM | NCI-H226 > 100 µM | HOP-92 > 100 µM | SW-620 > 100 µM | HOP-62 > 100 µM | BT-549 > 100 µM | OVCAR-5 > 100 µM

CCOC(=O)C1(Cc2ccc3c(c2)CCC3)Cc2cc3c(cc2C1)CCC3
inactive: MDA-MB-231 28.1 µM | KM12 40.7 µM | NCI-H522 25.1 µM | DU-145 53 µM | Hs-578T 34.8 µM | PC-3 21.9 µM | ACHN 33.7 µM | SF-539 29.7 µM | SK-MEL-2 32.6 µM | UO-31 49 µM | NCI-H226 31.6 µM | SW-620 23.9 µM | HOP-62 32.9 µM | BT-549 90.4 µM | OVCAR-5 45.6 µM

CCCCCCCN(CCCCCCC)CC(O)c1cc2ccccc2c2cc(Br)ccc12 (stereo not given)
inactive: MDA-MB-231 5.98 µM | NCI-H522 28.7 µM | DU-145 8.07 µM | PC-3 24.2 µM | ACHN 24.5 µM | SF-539 > 100 µM | SK-MEL-2 33.1 µM | UO-31 57.1 µM | HOP-92 19.2 µM | SW-620 23.1 µM | HOP-62 24.7 µM | OVCAR-5 > 100 µM

COc1ccc(Nc2nc3ccc(C(F)(F)F)cc3nc2C(=O)O)cc1OC
inactive: MDA-MB-231 37.9 µM | SK-MEL-5 20.1 µM | KM12 16.9 µM | NCI-H522 25.8 µM | DU-145 28.6 µM | Hs-578T 38.6 µM | PC-3 26.5 µM | ACHN 35.2 µM | RXF 393 29.6 µM | SK-MEL-2 17.2 µM | UO-31 19.2 µM | NCI-H226 36.7 µM | SW-620 29.2 µM | HOP-62 25.2 µM | BT-549 22.5 µM | OVCAR-5 47 µM

O=[N+]([O-])c1cccc(-c2nc(-c3ccccc3)c(-c3ccccc3)[nH]2)c1
inactive: MDA-MB-231 > 100 µM | SK-MEL-5 > 100 µM | NCI-H522 > 100 µM | DU-145 > 100 µM | Hs-578T > 100 µM | PC-3 > 100 µM | SF-539 > 100 µM | RXF 393 > 100 µM | SK-MEL-2 > 100 µM | UO-31 > 100 µM | NCI-H226 > 100 µM | SW-620 > 100 µM | HOP-62 > 100 µM | OVCAR-5 > 100 µM

CC[C@H](CO)Nc1nc(NCc2ccccc2)c2ncn(C(C)C)c2n1 [SELICICLIB]
inactive: MDA-MB-231 39.7 µM | SK-MEL-5 10.7 µM | KM12 5.26 µM | NCI-H522 16.4 µM | DU-145 16.9 µM | PC-3 19.9 µM | ACHN 12.8 µM | SF-539 15.8 µM | RXF 393 4.9 µM | SK-MEL-2 17.5 µM | UO-31 13.6 µM | NCI-H226 19.2 µM | HOP-92 50.9 µM | SW-620 82.4 µM | HOP-62 24.6 µM | OVCAR-5 42.8 µM

CCN1C[C@]2(C)CC[C@H](OC)C34C5C[C@@H]6[C@@H](OC)C[C@@](OC)(C5[C@H]6OCc5ccccc5)C(C13)[C@H](OC(C)=O)[C@@H]42 (stereo not given in full)
inactive: MDA-MB-231 > 100 µM | SK-MEL-5 > 100 µM | KM12 > 100 µM | DU-145 > 100 µM | Hs-578T > 100 µM | PC-3 82.8 µM | ACHN > 100 µM | SF-539 > 100 µM | RXF 393 > 100 µM | SK-MEL-2 > 100 µM | UO-31 > 100 µM | NCI-H226 > 100 µM | HOP-92 38.6 µM | SW-620 > 100 µM | HOP-62 > 100 µM | BT-549 > 100 µM | OVCAR-5 > 100 µM

C[NH+]1[C@@H](Cc2ccccc2)C(=O)O[B-]1(F)c1ccccc1 (stereo not given in full)
inactive: MDA-MB-231 > 100 µM | SK-MEL-5 > 100 µM | DU-145 > 100 µM | PC-3 > 100 µM | ACHN > 100 µM | UO-31 > 100 µM | NCI-H226 > 100 µM | HOP-92 > 100 µM | SW-620 > 100 µM | HOP-62 > 100 µM | BT-549 > 100 µM | OVCAR-5 > 100 µM

CC(=O)N1C(=O)c2cc3ccccc3cc21
inactive: MDA-MB-231 > 100 µM | SK-MEL-5 > 100 µM | DU-145 > 100 µM | Hs-578T > 100 µM | PC-3 > 100 µM | ACHN > 100 µM | SF-539 > 100 µM | SK-MEL-2 > 100 µM | UO-31 > 100 µM | NCI-H226 > 100 µM | HOP-92 62.7 µM | SW-620 > 100 µM | HOP-62 63.5 µM | OVCAR-5 > 100 µM

O=C1/C(=C/c2cccs2)NC(=S)N1CN1CCCC(CO)C1 (stereo not given)
inactive: MDA-MB-231 > 100 µM | SK-MEL-5 > 100 µM | KM12 > 100 µM | DU-145 > 100 µM | Hs-578T > 100 µM | PC-3 > 100 µM | ACHN > 100 µM | SK-MEL-2 > 100 µM | UO-31 > 100 µM | NCI-H226 > 100 µM | HOP-92 > 100 µM | SW-620 > 100 µM | HOP-62 > 100 µM | OVCAR-5 > 100 µM

COc1ccc(-c2c3c(n(C4OC(CO)C(O)C(O)C4O)c(=S)c2C#N)CCCC3)cc1 (stereo not given)
inactive: MDA-MB-231 > 100 µM | SK-MEL-5 62.2 µM | KM12 > 100 µM | Hs-578T > 100 µM | PC-3 > 100 µM | ACHN > 100 µM | SF-539 > 100 µM | RXF 393 > 100 µM | SK-MEL-2 > 100 µM | NCI-H226 > 100 µM | SW-620 > 100 µM | HOP-62 > 100 µM | OVCAR-5 > 100 µM

CCCCCCCCCCOC1C(C(C)OCCCN(C)C)OC2OC3(CCCCC3)OC21 (stereo not given)
inactive: MDA-MB-231 15.3 µM | SK-MEL-5 15.8 µM | NCI-H522 17.9 µM | DU-145 17.1 µM | Hs-578T 18.1 µM | PC-3 12.4 µM | ACHN 17.1 µM | RXF 393 14.9 µM | SK-MEL-2 15.8 µM | UO-31 17.9 µM | NCI-H226 17.2 µM | HOP-92 3.4 µM | SW-620 12.7 µM | HOP-62 16.4 µM | OVCAR-5 11.7 µM

Cc1ccc(S(=O)(=O)N(CCNC(=O)c2cccc(O)c2O)c2cc3c4c(c2)Oc2cccc5c2C4(C)c2c(cccc2O3)O5)cc1
inactive: MDA-MB-231 21.7 µM | SK-MEL-5 22.1 µM | KM12 > 100 µM | DU-145 > 100 µM | Hs-578T > 100 µM | PC-3 36 µM | ACHN > 100 µM | SF-539 73.3 µM | SK-MEL-2 > 100 µM | UO-31 > 100 µM | NCI-H226 7.74 µM | SW-620 14.6 µM | HOP-62 55.6 µM | OVCAR-5 64.7 µM

COC(=O)C(=O)C(C(=O)C(=O)Nc1ccc(C)c(C)c1)c1nc2ccc([N+](=O)[O-])cc2nc1O (stereo not given)
inactive: MDA-MB-231 > 100 µM | SK-MEL-5 > 100 µM | KM12 > 100 µM | NCI-H522 48.4 µM | Hs-578T > 100 µM | PC-3 > 100 µM | ACHN > 100 µM | SF-539 > 100 µM | RXF 393 > 100 µM | SK-MEL-2 > 100 µM | UO-31 68.9 µM | NCI-H226 > 100 µM | HOP-92 > 100 µM | SW-620 > 100 µM | HOP-62 > 100 µM | BT-549 > 100 µM | OVCAR-5 > 100 µM

Oc1ccc2ccccc2c1/N=N/c1cc(Cl)ccc1Cl
inactive: MDA-MB-231 11.8 µM | SK-MEL-5 38.5 µM | KM12 17.7 µM | NCI-H522 17.1 µM | Hs-578T 10.1 µM | PC-3 43.5 µM | ACHN 11 µM | RXF 393 27 µM | SK-MEL-2 28.4 µM | UO-31 21.3 µM | NCI-H226 49 µM | HOP-92 22.3 µM | SW-620 32.6 µM | HOP-62 10 µM | BT-549 > 50 µM | OVCAR-5 11.7 µM

O=C1NC(=O)C2=C1CCC2O (stereo not given)
inactive: MDA-MB-231 > 100 µM | KM12 > 100 µM | DU-145 > 100 µM | Hs-578T > 100 µM | PC-3 > 100 µM | ACHN > 100 µM | SF-539 > 100 µM | RXF 393 > 100 µM | SK-MEL-2 > 100 µM | UO-31 > 100 µM | NCI-H226 > 100 µM | HOP-92 > 100 µM | SW-620 > 100 µM | HOP-62 > 100 µM | OVCAR-5 > 100 µM
